Reference: US20030119913A1, “Method for increasing serotonin levels in a person by administration of a composition incorporating (-)-hydroxycitric acid, and related compositions thereof” (priority 2001, published 2003)

What was measured:
rat brain cortex slices = assay: Radiolabeled serotonin release from isolated, superfused rat brain cortex slices in vitro; assay type: cell-based
Experimental: Methods previously known for studies of radiolabeled serotonin release were employed. Isolated rat brain cortex slices were incubated in oxygenated Krebs buffer solution containing 800 nM radiolabeled serotonin, the monoamine oxidase inhibitor pargyline (10 μM), and the cyclooxygenase inhibitor flurbiprofen (3 μM) at 37° C. […] Radiolabeled serotonin was purchased from NEN Life Sciences, Boston, Mass. The Krebs solution used had the following composition (millimolar): potassium chloride, 4.8; sodium chloride 118; calcium chloride, 1.3; potassium dihydrogen phosphate, 1.2; sodium bicarbonate, 25; magnesium sulfate, 2.0; and dextrose, 10 (pH 7.4).
After incubation, tissues were rinsed, mounted between nylon mesh-cloth and placed in thermostatically-controlled superfusion chambers. Tissues were superfused at a rate of 0.5 ml/min with oxygenated Krebs solution containing clomipramine (10 μM), a serotonin reuptake inhibitor. Fractions of the superfusate were collected at 6-minute intervals, and 3-ml aliquots of each fraction was combined with 12 ml of aqueous scintillation cocktail marketed under the name Ecolume, by ICN Radiochemicals of California) and analyzed for radioactivity by liquid scintillation spectrometry.
After an initial 2 hours of superfusion to establish a stable baseline of spontaneous tritium efflux, release of radiolabeled serotonin was elicited by consecutive potassium-depolarizing (K+, 50 mM) stimuli applied at 144 minutes (S1) and at 198 minutes (S2) after the onset of superfusion. In some experiments, tissues were exposed to different concentrations of HCA for 12 minutes before the second K+ stimuli at S2. When HCA was tested on its own, the K+ (50 mM; S1) peak was used as the standard (or control) response. In this case, effects induced by HCA on radiolabeled serotonin release were then compared with the standard K+ response. Both K+ and HCA-induced radiolabeled serotonin release were estimated by subtraction of the extrapolated basal tritium efflux from total tritium release in the 20-minute period after the onset of stimulation. Basal (unstimulated) tritium efflux was assumed to decline linearly between pre-stimulation and post-stimulation fractions. Stimulation-evoked radiolabeled serotonin release during S1 and S2 was determined graphically, and the ratio of the two peaks (S1/S2) was calculated and compared with untreated control preparations.
Results obtained were expressed as absolute S1/S2 ratios. Data from different experiments (control and test) were pooled and then subjected to statistical analysis. Except where indicated otherwise, values given are arithmetic means ±SEM. Significance of difference between control and test values was evaluated using analysis of variance (ANOVA) followed by Dunnett's test. […]

[1] = tested on: moderately obese human subjects; assay: Double-blind, placebo-controlled human clinical trial (serum serotonin, body weight, food intake); assay type: in vivo
Experimental: The effects of administering compositions within the scope of the present invention were tested. A double-blind, placebo-controlled human clinical trial was conducted using a composition incorporating: the HCA extract described above, or the HCA extract in combination with an oxygen-coordinated niacin-bound chromium (ChromeMate®, supplied by InterHealth), and a standardized Gymnema sylvestre extract (also supplied by InterHealth). Approximately 80 moderately obese human subjects were enrolled in the study. All subjects were placed on a daily diet of 2,000 kcal, weighing 2,250 grams. All food was prepared and delivered to the subjects, and all food intake was strictly supervised by trained dieticians. All subjects also underwent a 30 minute walking exercise program, five times a week, which was supervised by a trained exercise specialist. The subjects were randomly divided into three groups. The first group was given a placebo. The second group was given a daily dose of 4,667 mg of garcinia cambogia extract (providing 2,800 mg HCA per day). The third group was given a daily dose of 4,667 mg of a combination of garcinia cambogia (2,800 mg HCA), 4 mg of niacin-bound chromium (providing 400 mcg of elemental chromium), and 400 mg of Gymnema sylvestre extract (providing 100 mg […]). The subjects received their respective compositions in three equally-divided doses 30 to 60 minutes before breakfast, lunch and dinner for eight weeks. These dosage levels of HCA were determined by extrapolation of successful earlier animal trials, as well as review of optimal micromolar concentrations of HCA in ex vivo brain tissue resulting in maximum serotonin release. The persons were assessed for changes in serum serotonin levels, body weight, and food intake. As discussed above, increases in serum serotonin levels relate to reduced appetite. Food intake was measured by monitoring the amount of food left unconsumed after each meal by the subjects. The amount of food left unconsumed while taking either the placebo or either of the HCA compositions was compared to the amount of food left unconsumed before the subjects began taking the compositions (i.e., the baseline). Changes in each of these factors were measured in the persons and averaged to produce the figures in Table 1.

[2] = eight weeks, 2,800 mg HCA per day orally in three doses

With `O=C(O)CC(O)(C(=O)O)C(O)C(=O)O` (single isomer, unassigned; (-)) [HCA, (−)-hydroxycitric acid] the “Effect on second K+ response (K+-depolarization evoked radiolabeled serotonin release, S2)” value (rat brain cortex slices; HCA 10 μM-1 mM applied 12 minutes before second K+ (50 mM) stimulus) was “no significant effect”, the “Effect on basal efflux of radiolabeled serotonin” value (rat brain cortex slices; HCA 10 μM-1 mM, rat brain cortex slices) was “concentration-related increase” and the “Overflow of radiolabeled serotonin compared with standard K+ (50 mM) response” value (rat brain cortex slices; HCA 300 μM (maximal concentration)) was “equivalent to the release induced by the standard concentration of K+ (50 mM)”. The “Concentration giving maximum basal efflux of radiolabeled serotonin” value (rat brain cortex slices; tested range 10 μM-1 mM) was 300 µM, the “Body weight, % decrease” value [1, 2] was 5.0% and the “Serum serotonin level, % increase” value [1, 2] was 48.5%. For the same compound, the “Serum serotonin level, mg/dl increase” value [1, 2] was 119.1 mg/dL, the “Body weight, pounds lost” value ([1]; eight weeks, 2,800 mg HCA per day orally in three doses, 2,000 kcal diet and exercise) was 10.0 pounds and the “Food left unconsumed, % increase from baseline” value ([1]; eight weeks, compared with before taking the compositions) was 206%. The “Food left unconsumed, grams” value ([1]; eight weeks, daily diet weighing 2,250 grams) was 249 grams.
